Data from the NIST ThermoML archive (doi:10.1021/je200030k).
Numbers after ± are expanded uncertainties.

Key:
[1] = xn = mol fraction of the nth substance listed; conditions: 101 kPa, Liquid, Vibrating tube method
[2] = refractive index (Na D-line) (dimensionless); xn = mol fraction of the nth substance listed; conditions: 101 kPa, Liquid, Standard Abbe refractometry

CCCCn1cc[n+](C)c1.NCC(=O)[O-] [1-butyl-3-methylimidazolium glycinate] + CC(C)O
Conditions	mass density, [1] [kg/m3]	refractive index, [2]
298.15 K, x1 = 0.0965	877.6 ± 1	1.405 ± 0.002
298.15 K, x1 = 0.1992	957.8 ± 1	1.43 ± 0.002
298.15 K, x1 = 0.3059	1024.4 ± 1	1.451 ± 0.002
298.15 K, x1 = 0.3977	1071.9 ± 1	1.466 ± 0.002
298.15 K, x1 = 0.5115	1121.6 ± 1	1.48 ± 0.002
298.15 K, x1 = 0.5868	1149.9 ± 1	1.488 ± 0.002
298.15 K, x1 = 0.7052	1188.4 ± 1	1.499 ± 0.002
298.15 K, x1 = 0.8117	1217.5 ± 1.1	1.509 ± 0.002
298.15 K, x1 = 0.8775	–	1.514 ± 0.002
303.15 K, x1 = 0.0965	870.7 ± 1	1.404 ± 0.002
303.15 K, x1 = 0.1992	951.4 ± 1	1.429 ± 0.002
303.15 K, x1 = 0.3059	1018.6 ± 1	1.45 ± 0.002
303.15 K, x1 = 0.3977	1066.5 ± 1	1.464 ± 0.002
303.15 K, x1 = 0.5115	1116.8 ± 1	1.478 ± 0.002
303.15 K, x1 = 0.5868	1145.4 ± 1	1.487 ± 0.002
303.15 K, x1 = 0.7052	1184.3 ± 1	1.499 ± 0.002
303.15 K, x1 = 0.8117	1213.9 ± 1.1	1.508 ± 0.002
303.15 K, x1 = 0.8775	–	1.513 ± 0.002
308.15 K, x1 = 0.0965	863 ± 1	1.403 ± 0.002
308.15 K, x1 = 0.1992	944.2 ± 1	1.429 ± 0.002
308.15 K, x1 = 0.3059	1012 ± 1	1.449 ± 0.002
308.15 K, x1 = 0.3977	1060.6 ± 1	1.463 ± 0.002
308.15 K, x1 = 0.5115	1111.4 ± 1	1.477 ± 0.002
308.15 K, x1 = 0.5868	1140.5 ± 1	1.486 ± 0.002
308.15 K, x1 = 0.7052	1180 ± 1	1.497 ± 0.002
308.15 K, x1 = 0.8117	1210 ± 1.1	1.505 ± 0.002
308.15 K, x1 = 0.8775	1226.4 ± 1.1	1.51 ± 0.002
313.15 K, x1 = 0.0965	854.7 ± 1	1.402 ± 0.002
313.15 K, x1 = 0.1992	936.6 ± 1	1.427 ± 0.002
313.15 K, x1 = 0.3059	1005 ± 1	1.449 ± 0.002
313.15 K, x1 = 0.3977	1054.1 ± 1	1.462 ± 0.002
313.15 K, x1 = 0.5115	1105.8 ± 1	1.477 ± 0.002
313.15 K, x1 = 0.5868	1135.3 ± 1	1.485 ± 0.002
313.15 K, x1 = 0.7052	1175.4 ± 1	1.497 ± 0.002
313.15 K, x1 = 0.8117	1205.9 ± 1.1	1.506 ± 0.002
313.15 K, x1 = 0.8775	–	1.511 ± 0.002

CCCCn1cc[n+](C)c1.NCC(=O)[O-] [1-butyl-3-methylimidazolium glycinate] + CCCCO
Conditions	mass density, [1] [kg/m3]	refractive index, [2]
298.15 K, x1 = 0.0972	885.2 ± 1	1.418 ± 0.002
298.15 K, x1 = 0.2125	962.5 ± 1	1.438 ± 0.002
298.15 K, x1 = 0.3041	1014.1 ± 1	1.454 ± 0.002
298.15 K, x1 = 0.3849	1054.3 ± 1	1.465 ± 0.002
298.15 K, x1 = 0.4929	1101.4 ± 1	1.478 ± 0.002
298.15 K, x1 = 0.6103	1146.3 ± 1	1.49 ± 0.002
298.15 K, x1 = 0.6923	1174.2 ± 1	1.497 ± 0.002
298.15 K, x1 = 0.8037	1208.4 ± 1.1	1.506 ± 0.002
298.15 K, x1 = 0.9129	–	1.514 ± 0.002
303.15 K, x1 = 0.0972	881.7 ± 1	1.417 ± 0.002
303.15 K, x1 = 0.2125	959.1 ± 1	1.438 ± 0.002
303.15 K, x1 = 0.3041	1010.9 ± 1	1.452 ± 0.002
303.15 K, x1 = 0.3849	1051.2 ± 1	1.463 ± 0.002
303.15 K, x1 = 0.4929	1098.4 ± 1	1.476 ± 0.002
303.15 K, x1 = 0.6103	1143.3 ± 1	1.488 ± 0.002
303.15 K, x1 = 0.6923	1171.2 ± 1	1.496 ± 0.002
303.15 K, x1 = 0.8037	1205.4 ± 1.1	1.505 ± 0.002
303.15 K, x1 = 0.9129	–	1.513 ± 0.002
308.15 K, x1 = 0.0972	878 ± 1	1.415 ± 0.002
308.15 K, x1 = 0.2125	955 ± 1	1.437 ± 0.002
308.15 K, x1 = 0.3041	1007 ± 1	1.45 ± 0.002
308.15 K, x1 = 0.3849	1048 ± 1	1.461 ± 0.002
308.15 K, x1 = 0.4929	1095 ± 1	1.474 ± 0.002
308.15 K, x1 = 0.6103	1140 ± 1	1.487 ± 0.002
308.15 K, x1 = 0.6923	1168 ± 1	1.495 ± 0.002
308.15 K, x1 = 0.8037	1202 ± 1	1.504 ± 0.002
308.15 K, x1 = 0.9129	1232 ± 1	1.512 ± 0.002
313.15 K, x1 = 0.0972	874 ± 1	1.413 ± 0.002
313.15 K, x1 = 0.2125	952 ± 1	1.435 ± 0.002
313.15 K, x1 = 0.3041	1004 ± 1	1.45 ± 0.002
313.15 K, x1 = 0.3849	1044 ± 1	1.461 ± 0.002
313.15 K, x1 = 0.4929	1092 ± 1	1.474 ± 0.002
313.15 K, x1 = 0.6103	1137 ± 1	1.486 ± 0.002
313.15 K, x1 = 0.6923	1165 ± 1	1.495 ± 0.002
313.15 K, x1 = 0.8037	1199 ± 1	1.503 ± 0.002
313.15 K, x1 = 0.9129	–	1.51 ± 0.002
